Data reported in paper PMC3667390 (Cancer immunology, immunotherapy : CII, 2009).

Test system: peptide-specific CD4 T cells
Assay type: cell-based, human
Settings: ELIspot and proliferation; peptide 10 μg/ml, CEA protein 1 μg/ml, 20-24 hours; day 15 of in vitro stimulation; three replicates

MELLLVNKLKWNLAA [Peptide C140]
reactivity of peptide-specific CD4 T cells: did not respond
